Columns and labels:
[1] = Inhibition of alpha-glucosidase (unknown origin) assessed as hydrolysis of pNP-alpha-Glu into pNP measured for 10 mins by spectrophotometric analysis; set-up: species or system Homo sapiens
[2] = Induction of nitric oxide release at 10^-4 M after 1 hr by Griess assay in presence of L-cysteine relative to control; assay type: physicochemical; settings: 100 µM
[3] = species on record: Homo sapiens; test: Potency index, ratio of apigenin IC50 to compound IC50 for alpha-glucosidase (unknown origin)

Compound | IC50 [1] [µM] | Activity [2] [%] | Ratio IC50 [3]
O=C(COc1cc(O)c2c(=O)cc(-c3ccccc3)oc2c1)OCCO[N+](=O)[O-] | 24 | – | –
O=C(COc1cc(O)c2c(=O)cc(-c3ccccc3)oc2c1)OCCCCCCO[N+](=O)[O-] | 3.39 | – | –
O=c1cc(-c2ccccc2)oc2cc(OCCCCO[N+](=O)[O-])cc(O)c12 | 18.7 | – | –
O=C(COc1ccc(-c2cc(=O)c3c(O)cc(OCC(=O)OCCO[N+](=O)[O-])cc3o2)cc1)OCCO[N+](=O)[O-] | 3.71 | 1.237 | –
CC(=O)Oc1cc(OCCCCCCO[N+](=O)[O-])cc2oc(-c3ccccc3)cc(=O)c12 | > 100 | – | –
O=c1cc(-c2ccc(OCCCCCCO[N+](=O)[O-])cc2)oc2cc(OCCCCCCO[N+](=O)[O-])cc(O)c12 | 4.59 | 0.49 | –
O=c1cc(-c2ccc(O)cc2)oc2cc(O)cc(O)c12 [APIGENIN] | 16.8 | – | –
O=C(COc1ccc(-c2cc(=O)c3c(O)cc(OCC(=O)OCCCCCCO[N+](=O)[O-])cc3o2)cc1)OCCCCCCO[N+](=O)[O-] | 2.57 | 1.147 | –
O=[N+]([O-])OCC(CO[N+](=O)[O-])O[N+](=O)[O-] [NITROGLYCERIN] | > 180 | 5.14 | –
O=c1cc(-c2ccccc2)oc2cc(O)cc(O)c12 [CHRYSIN] | 77.7 | – | –
O=c1cc(-c2ccc(OCCCCO[N+](=O)[O-])cc2)oc2cc(OCCCCO[N+](=O)[O-])cc(O)c12 | 5.04 | 0.24 | –
O=c1cc(-c2ccccc2)oc2cc(OCCCCCCO[N+](=O)[O-])cc(O)c12 | 21 | – | –
CC(=O)Oc1cc(OCCCCO[N+](=O)[O-])cc2oc(-c3ccccc3)cc(=O)c12 | > 100 | – | –
O=c1cc(-c2ccccc2)oc2cc(OCCO[N+](=O)[O-])cc(O)c12 | 30 | – | –
O=C(COc1ccc(-c2cc(=O)c3c(O)cc(OCC(=O)OCCCCO[N+](=O)[O-])cc3o2)cc1)OCCCCO[N+](=O)[O-] | 2.33 | 1.757 | 7.2
C[C@H]1O[C@H](O[C@H]2[C@H](O)[C@@H](O)[C@@H](O[C@H]3[C@H](O)[C@@H](O)C(O)O[C@@H]3CO)O[C@@H]2CO)[C@H](O)[C@@H](O)[C@@H]1N[C@H]1C=C(CO)[C@@H](O)[C@H](O)[C@H]1O (stereo partly drawn) [ACARBOSE] | 564 | – | –
O=C(COc1cc(O)c2c(=O)cc(-c3ccccc3)oc2c1)OCCCCO[N+](=O)[O-] | 14.1 | – | –
O=c1cc(-c2ccc(OCCO[N+](=O)[O-])cc2)oc2cc(OCCO[N+](=O)[O-])cc(O)c12 | 7.78 | 0.3 | –
CC(=O)Oc1cc(OCCO[N+](=O)[O-])cc2oc(-c3ccccc3)cc(=O)c12 | > 100 | – | –
OC[C@H]1NC[C@H](O)[C@@H](O)[C@@H]1O [DUVOGLUSTAT] | 227 | – | –
